Assay results published in US11919860B1 (priority 2023, dated 2024).

Legend:
[1] = test system: XDR strain of Mycobacterium tuberculosis; test: Anti-tubercular activity, colorimetric Resazurin Microplate Assay (REMA); assay type: cell-based; conditions: 192 h, read-out: Anti-tubercular activity against Mycobacterium tuberculosis XDR (MIC)
[2] = test system: MDR strain of Mycobacterium tuberculosis; test: as above; assay type: cell-based; conditions: 192 h, read-out: Anti-tubercular activity against Mycobacterium tuberculosis MDR (MIC)

SMILES | MIC [1] [µg/mL] | MIC [2] [µg/mL]
CC(C)OC(=O)c1cc[n+](CC(=O)c2ccccc2)cc1.[Br-] [Compound 4a, 4-(Isopropoxycarbonyl)-1-(2-oxo-2-phenylethyl)pyridin-1-ium Bromide] | 2 | 2
CC(C)OC(=O)c1cc[n+](CC(=O)c2ccc(F)cc2)cc1.[Br-] [Compound 4b, 1-(2-(4-Fluorophenyl)-2-oxoethyl)-4-(isopropoxycarbonyl)pyridin-1-ium bromide] | 16 | 1
